One assay concerns the target ROCK2 (Homo sapiens, UniProt O75116). Put plainly: ROCK2 kinase IC50 assay (CISBIO HTRF KinEASE-STK S2 kit). It is filed as biochemical. The note with it: incubated at room temperature for 2 hours. The protocol:
The kinase IC50 was determined by a commercialized CISBIO kinase detection kit, HTRF KinEASE-STK S2 kit (62ST2PEC). ROCK2 (01-119) employed in the reaction was purchased from Carna Biosciences.
Before the assay, the following working solutions as needed were formulated with corresponding reagents according to the instruction of the kinase detection kit: 1×kinase buffer, 5×STK-52 substrate working solution (1.5 μM) and 5×ATP working solution (1.5 μM), 5×ROCK2 kinase working solution, 4×Streptavidin-XL665 working solution, and 4×STK-Ab-Cryptate 2 detection solution. Then the assay was performed according to the following procedure.
A solution of a compound at a concentration of 10000 nM was prepared with the 1×kinase buffer containing 2.5% DMSO. Gradient dilution of the solution of the compound was performed with the kinase buffer containing DMSO, so as to obtain solutions of a test compound at 9 different concentrations. In addition to wells of test compounds, a positive well (containing all the reagents except the compound) and a negative well (containing all the reagents except the test compound and kinase) were set. Except for the control wells (positive and negative wells), a solution of a test compound (4 μL) was added to each of the reaction wells, and a solution of 2.5% DMSO was added to the control wells. Then the substrate ([…], 2 μL. 5×STK-S2 substrate working solution) was added to each of the reaction wells. The 5×ROCK2 kinase working solution (2 μL, containing 1.4 ng ROCK2 kinase) was added to each of the reaction wells except for the negative well, the volume of which was made up with the 1×kinase buffer (2 μL). The 5×ATP working solution (2 μL) was added to each of the reaction wells, and the mixtures were incubated at room temperature for 2 hours. After the kinase reaction was complete, the 4×Streptavidin-XL665 working solution was added to each of the reaction wells, the solutions were mixed, followed by immediate addition of the 4×STK-Ab-Cryptate 2 detection solution (5 μL), and the mixtures were incubated at room temperature for 1 hour. The fluorescence signal was read on ENVISION (Perkinelmer) (excitation wavelength: 320 nm, and emission wavelength: 665 nm and 615 nm). The inhibitory rate in each well was calculated based on the fluorescence intensity value: ER (Emission Ratio)=(fluorescence intensity at 665 nm/fluorescence intensity at 615 nm); inhibitory rate=(ERpositive−ERtest compound)/(ERpositive−ERnegative)*100%. Curves were plotted and fitted to obtain the median inhibitory concentration (IC50) of each teat compound with the PRISM 5.0 software.

The target of a further assay is ROCK1 (Homo sapiens (Human), UniProt Q13464). The experiment in a line: ROCK1 kinase IC50 assay (biological test method similar to the ROCK2 assay). It is filed as biochemical. The gist of the method:
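HTRF KinEASE-STK S2 assay with the STK-S2 biotinylated substrate and ATP, at 5× working solutions of 1.5 µM each. Kinase reaction with 9-point compound dilutions ran 2 h at room temperature, followed by 1 h streptavidin-XL665/Cryptate detection. The 665/615 nm ratio was normalised to no-compound and no-kinase wells, and IC50 was obtained by curve fitting.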

SMILES strings stand for the structures.

ROCK1, sequence (Q13464 whole entry, species assumed): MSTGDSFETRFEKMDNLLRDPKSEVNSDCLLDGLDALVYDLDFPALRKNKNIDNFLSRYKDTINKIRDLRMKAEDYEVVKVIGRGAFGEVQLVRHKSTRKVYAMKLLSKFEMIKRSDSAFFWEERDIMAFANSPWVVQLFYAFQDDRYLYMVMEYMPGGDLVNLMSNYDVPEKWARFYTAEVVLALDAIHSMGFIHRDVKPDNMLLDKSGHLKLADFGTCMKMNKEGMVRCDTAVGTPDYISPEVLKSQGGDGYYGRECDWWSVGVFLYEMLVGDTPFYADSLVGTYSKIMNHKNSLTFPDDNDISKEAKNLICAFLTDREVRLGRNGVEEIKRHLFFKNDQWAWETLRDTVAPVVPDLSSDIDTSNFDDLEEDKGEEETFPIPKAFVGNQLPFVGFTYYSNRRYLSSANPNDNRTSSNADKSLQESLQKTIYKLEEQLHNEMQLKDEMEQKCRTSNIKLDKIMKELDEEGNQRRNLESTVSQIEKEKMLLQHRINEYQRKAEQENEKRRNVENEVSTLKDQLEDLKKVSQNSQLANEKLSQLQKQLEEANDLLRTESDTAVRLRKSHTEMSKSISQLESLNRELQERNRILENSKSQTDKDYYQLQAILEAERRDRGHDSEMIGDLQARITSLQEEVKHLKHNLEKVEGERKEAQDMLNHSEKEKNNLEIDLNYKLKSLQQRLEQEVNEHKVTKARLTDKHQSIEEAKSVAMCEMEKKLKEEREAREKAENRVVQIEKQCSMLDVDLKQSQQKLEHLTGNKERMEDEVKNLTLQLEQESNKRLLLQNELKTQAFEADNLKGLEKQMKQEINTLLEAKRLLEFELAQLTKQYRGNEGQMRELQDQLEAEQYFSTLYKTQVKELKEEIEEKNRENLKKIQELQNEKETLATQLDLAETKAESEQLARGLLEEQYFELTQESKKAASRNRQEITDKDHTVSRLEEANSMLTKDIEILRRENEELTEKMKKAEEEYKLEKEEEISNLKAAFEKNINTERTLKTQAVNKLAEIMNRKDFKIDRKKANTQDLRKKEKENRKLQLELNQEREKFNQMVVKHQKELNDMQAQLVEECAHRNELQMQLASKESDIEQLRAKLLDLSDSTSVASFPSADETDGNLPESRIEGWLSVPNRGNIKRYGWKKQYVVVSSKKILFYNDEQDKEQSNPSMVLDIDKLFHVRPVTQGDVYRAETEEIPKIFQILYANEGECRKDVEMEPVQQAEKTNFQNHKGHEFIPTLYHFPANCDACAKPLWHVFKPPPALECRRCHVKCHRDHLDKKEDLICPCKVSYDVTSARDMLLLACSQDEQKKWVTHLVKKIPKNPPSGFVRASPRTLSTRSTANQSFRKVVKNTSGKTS

With `CN(CC(F)(F)F)C(=O)c1cc2ccc(-c3nccc(Nc4ccc(-c5cn[nH]c5)cc4)n3)cc2s1` [TDI01428, 6-(4-((4-(1H-pyrazol-4-yl)phenyl)-amino)-pyrimidin-2-yl)-N-methyl-N-(2,2,2-trifluoroethyl)-benzo[b]-thiophene-2-carboxamide], the IC50 against ROCK2 is 69 nM; on ROCK1, more than 10000 nM.
As for `CN(CC(F)(F)F)C(=O)c1cc2cc(-c3nccc(Nc4ccc(-c5cn[nH]c5)cc4)n3)ccc2[nH]1` [TDI01429, 5-(4-((4-(1H-pyrazol-4-yl)phenyl)amino)pyrimidin-2-yl)-N-methyl-N-(2,2,2-trifluoroethyl)-1H-indole-2-carboxamide], the half-inhibitory concentration (IC50) is 99 nM at ROCK2 and more than 10000 nM against ROCK1.
For `CC1COCCN1C(=O)c1cc2ccc(-c3nccc(Nc4ccc(-c5cn[nH]c5)cc4)n3)cc2[nH]1` (centres unmarked) [TDI01431, (6-(4-((4-(1H-pyrazol-4-yl)phenyl)amino)pyrimidin-2-yl)-1H-indol-2-yl)(3-methylmorpholino) methanone] the same measures were 203 nM and 4340 nM.
For `O=C(c1cc2ccc(-c3nccc(Nc4ccc(-c5cn[nH]c5)cc4)n3)cc2[nH]1)N1CC(O)C1` [TDI01437, (6-(4-((4-(1H-pyrazol-4-yl)phenyl)amino)pyrimidin-2-yl)-1H-indol-2-yl)(3-hydroxyazetidin-1-yl)methanone] the same measures were 247 nM and more than 10000 nM.
For `O=C(c1cc2ccc(-c3nccc(Nc4ccc(-c5cn[nH]c5)cc4)n3)cc2[nH]1)N1CC[C@H](O)C1` [TDI01438, (S)-(6-(4-((4-(1H-pyrazol-4-yl)phenyl)amino)pyrimidin-2-yl)-1H-indol-2-yl)(3-hydroxypyrrolidin-1-yl)methanone] the same measures were 402 nM and more than 10000 nM.
Consider `CC(C)NC(=O)c1cc2ccc(-c3nc(Nc4ccc(-c5cn[nH]c5)cc4)c4sccc4n3)cc2s1` [TDI01439, 6-(4-((4-(1H-pyrazol-4-yl)phenyl)-amino)thieno-[3,2-d]pyrimidin-2-yl)-N-isopropyl-benzo-[b]thiophene-2-carboxamide], for which the IC50 against ROCK2 is 203 nM; at ROCK1, more than 10000 nM.
As for `CC1(F)CN(C(=O)c2cc3ccc(-c4nccc(Nc5ccc(-c6cn[nH]c6)cc5)n4)cc3[nH]2)C1` [TDI01441, (6-(4-((4-(1H-pyrazol-4-yl)phenyl)amino)pyrimidin-2-yl)-1H-indol-2-yl)(3-fluoro-3-methylazetidin-1-yl)methanone], the IC50 at ROCK2 came out at 181 nM; against ROCK1 it was 6070 nM.
For `O=C(c1cc2ccc(-c3nccc(Nc4ccc(-c5cn[nH]c5)cc4)n3)cc2[nH]1)N1CCC(C(F)(F)F)C1` (centres unmarked) [TDI01444, (6-(4-((4-(1H-pyrazol-4-yl)phenyl)amino)pyrimidin-2-yl)-1H-indol-2-yl)(3-(trifluoromethyl)pyrrolidin-1-yl)methanone] the same measures were 32 nM and 8260 nM.
Regarding `N#CC1CCN(C(=O)c2cc3ccc(-c4nccc(Nc5ccc(-c6cn[nH]c6)cc5)n4)cc3[nH]2)CC1` [TDI01445, 1-(6-(4-((4-(1H-pyrazol-4-yl)phenyl)amino)pyrimidin-2-yl)-1H-indole-2-carbonyl)piperidine-4-carbonitrile], the IC50 at ROCK2 worked out at 64 nM; against ROCK1, 3000 nM.
For `N#CC1CCN(C(=O)c2cc3ccc(-c4nccc(Nc5ccc(-c6cn[nH]c6)cc5)n4)cc3[nH]2)C1` (centres unmarked) [TDI01448, 1-(6-(4-((4-(1H-pyrazol-4-yl)phenyl)amino)pyrimidin-2-yl)-1H-indole-2-carbonyl)pyrrolidine-3-carbonitrile] the same measures were 13 nM and 3000 nM.
For `O=C(c1cc2ccc(-c3nc(Nc4ccc(-c5cn[nH]c5)cc4)c4sccc4n3)cc2[nH]1)N1CCOCC1` [TDI01450, (6-(4-((4-(1H-pyrazol-4-yl)phenyl)amino)thieno [3,2-d]pyrimidin-2-yl)-1H-indol-2-yl)(morpholino)methanone], the IC50 at ROCK2 was 453 nM; against ROCK1, more than 10000 nM.
For `O=C(c1cc2ccc(-c3nccc(Nc4ccc(-c5cn[nH]c5)cc4)n3)cc2[nH]1)N1CC(F)C1` [TDI01455, (6-(4-((4-(1H-pyrazol-4-yl)phenyl)amino)pyrimidin-2-yl)-1H-indol-2-yl)(3-fluoroazetidin-1-yl)methanone] the same measures were 29 nM and more than 10000 nM.
As for `O=C(NCC(F)(F)F)c1cc2ccc(-c3nccc(Nc4ccc(-c5cn[nH]c5)cc4)n3)cc2s1` [TDI01456, 6-(4-((4-(1H-pyrazol-4-yl)phenyl)-amino)-pyrimidin-2-yl)-N-(2,2,2-trifluoroethyl)-benzo[b]-thiophene-2-carboxamide], the IC50 on ROCK2 was 15 nM; at ROCK1, more than 10000 nM.
As for `CC(NC(=O)c1cc2ccc(-c3nccc(Nc4ccc(-c5cn[nH]c5)cc4)n3)cc2n1C)C(F)(F)F` (centres unmarked) [TDI01457, 6-(4-((4-(1H-pyrazol-4-yl)phenyl)amino)pyrimidin-2-yl)-1-methyl-N-(1,1,1-trifluoropropan-2-yl)-1H-indole-2-carboxamide], the IC50 amounted to 395 nM at ROCK2 and 4890 nM against ROCK1.
For the molecule `CC1(C#N)CN(C(=O)c2cc3ccc(-c4nccc(Nc5ccc(-c6cn[nH]c6)cc5)n4)cc3[nH]2)C1` [TDI01461, 1-(6-(4-((4-(1H-pyrazol-4-yl)phenyl)amino)pyrimidin-2-yl)-1H-indole-2-carbonyl)-3-methylazetidine-3-carbonitrile], the values for the IC50 at ROCK2 and at ROCK1 were 140 nM and 4530 nM, respectively.
For `O=C(c1cc2ccc(-c3nccc(Nc4ccc(-c5cn[nH]c5)cc4)n3)cc2[nH]1)N1CCC(F)(F)C1` [TDI01463, (6-(4-((4-(1H-pyrazol-4-yl)phenyl)amino)pyrimidin-2-yl)-1H-indol-2-yl)(3,3-difluoropyrrolidin-1-yl)methanone] the same measures were 11 nM and more than 10000 nM.
For `O=C(c1cc2ccc(-c3nccc(Nc4ccc(-c5cn[nH]c5)cc4)n3)cc2[nH]1)N1CCC2(CCN2)CC1` [TDI01464, (6-(4-((4-(1H-pyrazol-4-yl)phenyl)amino)pyrimidin-2-yl)-1H-indol-2-yl)(1,7-diazaspiro[3.5]nonan-7-yl)methanone] the same measures were 175 nM and 2280 nM.
For `CS(=O)(=O)C1CN(C(=O)c2cc3ccc(-c4nccc(Nc5ccc(-c6cn[nH]c6)cc5)n4)cc3[nH]2)C1` [TDI01465, (6-(4-((4-(1H-pyrazol-4-yl)phenyl)amino)pyrimidin-2-yl)-1H-indol-2-yl)(3-(methylsulfonyl)azetidin-l-yl)methanone] the same measures were 398 nM and more than 10000 nM.
`O=C(c1cc2ccc(-c3nc(Nc4ccc(-c5cn[nH]c5)cc4)c4sccc4n3)cc2[nH]1)N1CC(F)(F)C1` [TDI01472, (6-(4-((4-(1H-pyrazol-4-yl)phenyl)amino)thieno [3,2-d]pyrimidin-2-yl)-1H-indol-2-yl)(3,3-difluoroazetidin-1-yl)methanone]: the IC50 against ROCK2 is 174 nM; on ROCK1 it was more than 10000 nM.
For `O=C(c1cc2ccc(-c3nccc(Nc4ccc(-c5cn[nH]c5)cc4)n3)cc2[nH]1)N1CCC(F)C1` (centres unmarked) [TDI01473, (6-(4-((4-(1H-pyrazol-4-yl)phenyl)amino)pyrimidin-2-yl)-1H-indol-2-yl)(3-fluoropyrrolidin-1-yl)methanone] the same measures were 18 nM and 592 nM.
`O=C(c1cc2ccc(-c3nccc(Nc4ccc(-c5cn[nH]c5)cc4)n3)cc2[nH]1)N1C[C@@H](F)[C@@H](F)C1` [TDI01477, (6-(4-((4-(1H-pyrazol-4-yl)phenyl)amino)pyrimidin-2-yl)-1H-indol-2-yl)((3S,4R)-3,4-difluoropyrrolidin-1-yl)methanone]: the IC50 amounted to 47 nM at ROCK2 and 1130 nM against ROCK1.
With `O=C(c1cc2ccc(-c3nccc(Nc4ccc(-c5cn[nH]c5)cc4)n3)cc2[nH]1)N1CCC(F)(F)CC1` [TDI01485, (6-(4-((4-(1H-pyrazol-4-yl)phenyl)amino)pyrimidin-2-yl)-1H-indol-2-yl)(4,4-difluoropiperidin-1-yl)methanone], the figures for the 50% inhibitory concentration (IC50) against ROCK2 and at ROCK1 were 276 nM and 3990 nM, respectively.

By IC50 is commonly meant the concentration that gives 50% inhibition. Low values mean higher potency, high ones lower potency.

The values above are taken from patent US11390609B2, “Rho-associated protein kinase inhibitor, pharmaceutical composition comprising same, and preparation method and use thereof” (BEIJING TIDE PHARMACEUTICAL CO., LTD., priority 2017, dated 2022).
